These results are taken from patent publication US20190225650A1, “PEPTIDOMIMETIC MACROCYCLES AND USE THEREOF IN REGULATING HIF1ALPHA” (AILERON THERAPEUTICS, INC., priority 2013, published 2019).

The test system of assay [1] is HRE-bla ME-180 cells. The assay can be described thus: Cell proliferation assay (viability, MTT, 1% FBS). The class given is cell-based, human. How it is done: The human cervical cell line HRE-Bla ME-180 was obtained from Invitrogen. 2×10^4 ME-180 cells were plated in 96-well plates (costar) in Opti-MEM plus 1% FBS (Invitrogen). After 4 hr, cells were pretreated with chetomin, peptide or 0.5% DMSO (final concentration in media) vehicle control for 16 hr under normoxia (21% O2); then incubation continued under normoxia or hypoxia (1% O2) using a hypoxia incubator (Thermo Forma model). Viable cell numbers were quantified using CellTiter 96 Non-Radioactive Cell Proliferation kit (Promega, G4100). The results are presented in the column “Viability 1% FBS AVG (MTT V3-24 hr Normoxia) (μM)” of Table 6.

Assay [2] concerns the target T1, flag-tagged HIF1α (AA 786-826) / His6-tagged p300 (AA 323-423) complex (Homo sapiens, UniProt Q09472).
T1 construct: His6-tagged p300 (AA 323-423); made in house; host or cells: E. coli (pETDuet vector)
Put plainly: HIF1α p300 displacement assay (TR FRET, +CHAPS). The class given is binding. Particulars: read-out: IC50 (nM) (HIF1α_p300 Displacement + CHAPS). A digest of the protocol: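 In this TR-FRET displacement format, peptides compete HIF1α C-terminal transactivation domain off p300-CH. They were preincubated 1 h at room temperature with 300 nM complex in HEPES pH 7.4/NaCl buffer with 7.5 mM CHAPS and 1 mM DTT. Anti-His-D2 (4 nM) and anti-Flag-K (0.5 μM) followed for 2 h, and a one-site fit of the fluorescence ratio gave IC50.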
For orientation: In TR-FRET formats the signal depends on donor and acceptor labels being close together.

Assay [3] has as its system HRE-bla ME-180 cells. The assay can be described thus: Reporter gene assay (HRE-bla ME-180 HIF reporter, GeneBLAzer). It counts as cell-based, human. The note with it: for EC50: 24 hour normoxia. A digest of the protocol: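 A FRET β-lactamase readout of HIF transcription was used. After compound treatment in 0.3% DMSO/media under normoxic conditions, 20 μl of 6× LiveBLAzer-FRET B/G (CCF4-AM) substrate was added. Plates sat 3 hr at room temperature in the dark and were read at 409 Ex/460Em and 409Ex/530Em on a Synergy 2. Inhibition was compared against DMSO vehicle controls, with chetomin as positive control.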

Bridge positions count the residues as written; N and C are the ends. Square brackets hold non-standard residues; d marks the D form. Peptide text beside a SMILES is read from it. R8 = C=CCCCCCC[C@@](C)(N)C(=O)O; S5 = C=CCCC[C@](C)(N)C(=O)O; Nle = CCCC[C@H](N)C(=O)O

As usually defined, the IC50 is the midpoint of a concentration-inhibition curve. Consider `CCCC[C@@H]1NC(=O)[C@H](CC(C)C)NC(=O)[C@H](C(C)C)NC(=O)[C@@](C)(NC(=O)[C@H](CCC(=O)O)NC(=O)[C@H](CC(=O)O)NC(=O)[C@@H](NC(=O)[C@H](Cc2ccccc2)NC(C)=O)[C@@H](C)CC)CCCC=CCCC[C@@](C)(C(=O)N[C@@H](CC(C)C)C(=O)N[C@H](C(=O)N[C@H](C(=O)N[C@@H](CCC(=O)O)C(=O)N[C@@H](C)C(=O)N[C@@H](C)C(=O)N[C@@H](CC(C)C)C(N)=O)[C@@H](C)CC)C(C)C)NC1=O` [SP-145] (Ac-FIDE[S5]VL[Nle][S5]LVIEAAL-NH2; staple 5-9), for which the “Viability 1% FBS AVG (MTT V3-24 hr Normoxia) (μM)” value (“Viability 1% FBS AVG” for short) in assay [1] is “++++ (≥30: ++++)”. Moreover, the IC50 in assay [2] lay in the range of 200 to 400 nM.

With `CC[C@H](C)[C@H](NC(=O)[C@H](CCCNC(=N)N)NC(=O)[C@H](CC(=O)O)NC(=O)[C@H](CC(C)C)NC(=O)[C@H](C)NC(=O)[C@H](CCSC)NC(=O)[C@]1(C)CCCC=CCCC[C@](C)(NC(=O)[C@H](CCSC)NC(=O)[C@H](CC(C)C)NC(=O)[C@@H](NC(=O)[C@H](C)NC(=O)[C@H](CCC(=O)O)NC(=O)[C@H](CC(=O)O)NC(=O)[C@@H](NC(=O)[C@H](Cc2ccccc2)NC(C)=O)[C@@H](C)CC)C(C)C)C(=O)N[C@@H](CC(C)C)C(=O)N[C@@H](C(C)C)C(=O)N[C@@H]([C@@H](C)CC)C(=O)N1)C(N)=O` [SP-266] (Ac-FIDEAVLM[S5]LVI[S5]MALDRI-NH2; staple 9-13), the “Viability 1% FBS AVG” value in assay [1] is recorded as “++++ (≥30: ++++)”. In assay [2], the IC50 lay within 200 to 400 nM.

Consider `CCCC[C@H](NC(=O)[C@H](CCC(=O)O)NC(=O)[C@@H](NC(=O)[C@@H](NC(=O)[C@H](CC(C)C)NC(=O)[C@]1(C)CCCC=CCCC[C@](C)(NC(=O)[C@H](CCC(=O)O)NC(=O)[C@H](CC(=O)O)NC(=O)[C@@H](NC(=O)[C@H](CC(N)=O)NC(=O)[C@@H](NC(=O)[C@H](CCC(N)=O)NC(=O)[C@H](CC(=O)O)NC(=O)[C@H](CC(C)C)NC(=O)[C@]2(C)CCCC=CCCC[C@](C)(NC(=O)[C@H](CCC(=O)O)NC(=O)CNC(=O)[C@H](CCC(N)=O)NC(=O)[C@H](CC(C)C)NC(=O)[C@H](CC(C)C)NC(C)=O)C(=O)N[C@@H](CC(C)C)C(=O)N[C@@H](CC(C)C)C(=O)N[C@@H](CCCNC(=N)N)C(=O)N2)C(C)C)[C@@H](C)CC)C(=O)N[C@@H](C(C)C)C(=O)N[C@@H](CC(C)C)C(=O)N[C@@H](CCCC)C(=O)N1)C(C)C)[C@@H](C)CC)C(=O)NCC(N)=O` [SP-326] (Ac-LLQGE[S5]LLR[S5]LDQVNIDE[S5]VL[Nle][S5]LVIE[Nle]G-NH2; staple 6-10, 19-23), for which the “Viability 1% FBS AVG” value in assay [1] is “++++ (≥30: ++++)”. In assay [2], the IC50 was more than 700 nM.

A word on the EC50: it is the concentration that produces a half-maximal response. For `CCCC[C@H](NC(=O)[C@]1(C)CCCC=CCCC[C@](C)(NC(=O)[C@H](CCCC)NC(=O)[C@H](CC(C)C)NC(=O)[C@@H](NC(=O)[C@H](CCC(=O)O)NC(=O)[C@H](CCC(=O)O)NC(=O)[C@H](CC(=O)O)NC(=O)[C@@H](NC(=O)[C@H](CC(N)=O)NC(=O)[C@@H](NC(=O)[C@]2(C)CCCC=CCCCCCC[C@@](C)(NC(=O)[C@H](CCC(=O)O)NC(=O)[C@H](C)NC(=O)[C@H](CCC(N)=O)NC(=O)[C@H](CC(C)C)NC(=O)[C@H](CC(C)C)NC(C)=O)C(=O)N[C@@H](CC(C)C)C(=O)N[C@@H](CC(C)C)C(=O)N[C@@H](CCCNC(=N)N)C(=O)N[C@@H](C)C(=O)N[C@@H](CC(C)C)C(=O)N[C@@H](CC(=O)O)C(=O)N2)C(C)C)[C@@H](C)CC)C(C)C)C(=O)N[C@@H](CC(C)C)C(=O)N[C@@H](C(C)C)C(=O)N[C@@H]([C@@H](C)CC)C(=O)N1)C(N)=O` [SP-350] (Ac-LLQAE[R8]LLRALD[S5]VNIDEEVL[Nle][S5]LVI[S5][Nle]-NH2; staple 6-13, 23-27), in assay [1], the “Viability 1% FBS AVG” value is “++++ (≥30: ++++)”. In assay [3], the “18 h Avg % max inhibition at top conc (HIF Rptr-24 hrs normoxia) (μM)” value (shortened to “18 h Avg % max inhibition at top conc”) is on record as “+++ (≤25 but <50: +++)” and the EC50 lay in the range of 5 to 15 µM.

As to `CCCC[C@H](NC(=O)[C@H](CC(C)C)NC(=O)[C@@H](NC(=O)[C@H](C)NC(=O)[C@H](CCC(N)=O)NC(=O)[C@H](CC(=O)O)NC(=O)[C@@H](NC(=O)[C@H](Cc1ccccc1)NC(C)=O)[C@@H](C)CC)C(C)C)C(=O)N[C@@]1(C)CCCC=CCCC[C@@](C)(C(=O)N[C@@H](CCCC)C(=O)N[C@@H](C)C(=O)N[C@@H](CC(C)C)C(=O)N[C@@H](CC(N)=O)C(=O)N[C@@H](CCCNC(=N)N)C(=O)N[C@H](C(N)=O)[C@@H](C)CC)NC(=O)[C@H]([C@@H](C)CC)NC(=O)[C@H](C(C)C)NC(=O)[C@H](CC(C)C)NC1=O` [SP-273] (Ac-FIDQAVL[Nle][S5]LVI[S5][Nle]ALNRI-NH2; staple 9-13), the “Viability 1% FBS AVG” value in assay [1] is on record as “++++ (≥30: ++++)”. In addition, in assay [3], the “18 h Avg % max inhibition at top conc” value is given as “+++ (≤25 but <50: +++)” and the concentration giving a half-maximal response (EC50) was more than 30 µM.

As to `CCCC[C@H](NC(=O)[C@H](C)NC(=O)[C@]1(C)CCCC=CCCCCCC[C@@](C)(NC(=O)[C@H](C)NC(=O)[C@H](C)NC(=O)[C@@H](NC(=O)[C@H](CC(N)=O)NC(=O)[C@@H](NC(=O)[C@H](CCC(N)=O)NC(=O)[C@]2(C)CCCC=CCCC[C@](C)(NC(=O)[C@H](CC(C)C)NC(=O)[C@H](C)NC(=O)[C@H](C)NC(=O)CNC(=O)[C@H](CCC(N)=O)NC(=O)[C@H](CC(C)C)NC(=O)[C@H](CC(C)C)NC(C)=O)C(=O)N[C@@H](CCCNC(=N)N)C(=O)N[C@@H](C)C(=O)N[C@@H](CC(C)C)C(=O)N2)C(C)C)[C@@H](C)CC)C(=O)N[C@@H](C(C)C)C(=O)N[C@@H](CC(C)C)C(=O)N[C@@H](CCCC)C(=O)N[C@@H](CO)C(=O)N[C@@H](CC(C)C)C(=O)N[C@@H](C(C)C)C(=O)N1)C(N)=O` [SP-364] (Ac-LLQGAAL[S5]RAL[S5]QVNIAA[R8]VL[Nle]SLV[S5]A[Nle]-NH2; staple 8-12, 19-26), in assay [1], the “Viability 1% FBS AVG” value was “++++ (≥30: ++++)”. For the same molecule, in assay [3], the “18 h Avg % max inhibition at top conc” value is given as “++ (≤10 but <25: ++)” and the EC50 is more than 30 µM.

With `CCCC[C@H](NC(=O)[C@H](CCC(=O)O)NC(=O)[C@@H](NC(=O)[C@@H](NC(=O)[C@H](CC(C)C)NC(=O)[C@]1(C)CCCC=CCCC[C@](C)(NC(=O)[C@H](CCC(=O)O)NC(=O)[C@H](CC(=O)O)NC(=O)[C@@H](NC(=O)[C@H](CC(N)=O)NC(=O)[C@@H](NC(=O)[C@H](CCC(N)=O)NC(=O)[C@H](CC(=O)O)NC(=O)[C@H](CC(C)C)NC(=O)[C@H](C)NC(=O)[C@H](CCCNC(=N)N)NC(=O)[C@]2(C)CCCC=CCCC[C@](C)(NC(=O)[C@H](CCC(N)=O)NC(=O)[C@H](CC(C)C)NC(=O)[C@H](CC(C)C)NC(C)=O)C(=O)N[C@@H](CCC(=O)O)C(=O)N[C@@H](CCC(=O)O)C(=O)N[C@@H](CC(C)C)C(=O)N2)C(C)C)[C@@H](C)CC)C(=O)N[C@@H](C(C)C)C(=O)N[C@@H](CC(C)C)C(=O)N[C@@H](CCCC)C(=O)N1)C(C)C)[C@@H](C)CC)C(=O)NCC(N)=O` [SP-325] (Ac-LLQ[S5]EEL[S5]RALDQVNIDE[S5]VL[Nle][S5]LVIE[Nle]G-NH2; staple 4-8, 19-23), the “Viability 1% FBS AVG” value in assay [1] was “++++ (≥30: ++++)”. Further, in assay [3], the “18 h Avg % max inhibition at top conc” value is “+ (<10: +)” and the 50% effective concentration (EC50) was more than 30 µM.

Turning to `CC[C@H](C)[C@H](NC(=O)[C@H](Cc1ccccc1)NC(C)=O)C(=O)N[C@@H](CC(=O)O)C(=O)N[C@@H](CCC(=O)O)C(=O)N[C@@H](CCC(=O)O)C(=O)N[C@H](C(=O)N[C@@H](CC(C)C)C(=O)N[C@@H](CCSC)C(=O)N[C@@]1(C)CCCC=CCCC[C@@](C)(C(=O)N[C@@H](CCSC)C(=O)N[C@@H](C)C(=O)N[C@@H](CC(C)C)C(N)=O)NC(=O)[C@H]([C@@H](C)CC)NC(=O)[C@H](C(C)C)NC(=O)[C@H](CC(C)C)NC1=O)C(C)C` [SP-7] (Ac-FIDEEVLM[S5]LVI[S5]MAL-NH2; staple 9-13), in assay [1], the “Viability 1% FBS AVG” value is listed as “++++ (≥30: ++++)”. For the same molecule, the IC50 in assay [2] fell in the range of 400 to 700 nM.

Regarding `CC[C@H](C)[C@H](NC(=O)[C@H](Cc1ccccc1)NC(C)=O)C(=O)N[C@@H](CC(=O)O)C(=O)N[C@@H](CCC(=O)O)C(=O)N[C@@H](CCC(=O)O)C(=O)N[C@H](C(=O)N[C@@H](CC(C)C)C(=O)N[C@@H](CCSC)C(=O)N[C@@]1(C)CCCC=CCCC[C@@](C)(C(=O)N[C@@H](CCSC)C(=O)N[C@@H](C)C(=O)N[C@@H](CC(C)C)C(=O)N[C@@H](CC(C)C)C(N)=O)NC(=O)[C@H]([C@@H](C)CC)NC(=O)[C@H](C(C)C)NC(=O)[C@H](CC(C)C)NC1=O)C(C)C` [SP-229] (Ac-FIDEEVLM[S5]LVI[S5]MALL-NH2; staple 9-13), the “Viability 1% FBS AVG” value in assay [1] is given as “++++ (≥30: ++++)”. For the same molecule, in assay [3], the “18 h Avg % max inhibition at top conc” value is given as “+ (<10: +)” and the concentration giving a half-maximal response (EC50) was more than 30 µM.
